Data published in patent US20080234226A1, “Use Of Iron(III) Complex Compounds For The Preparation Of A Medicament For Oral Treatment Of Iron Deficiency States In Patients With Chronic Inflammatory Bowel Disease” (VIFOR (INTERNATIONAL) AG, priority 2005, published 2008).
Where two headings read alike, the source gives them in different places. Marks after values point to notes of the source that are not given here.

Key:
white mice = conditions: cited from earlier work
[1] = tested on: patients with chronic inflammatory bowel disease
Protocol: (§1) Analysis of the blood, urine and stool and the clinical evaluation of the disease were carried out on day 1 and 15.
(§2) The tablets were taken in accordance with the manufacturer's recommendations. Patient compliance was defined as the consumption of the tablets handed out, 80% being regarded as satisfactory.
(§3) Blood samples were taken, after fasting during the night, on the morning of day 1 and day 15.
The values were analysed using the Wilcoxon test for pair differences, and the median and range are stated. The comparison of ratios was evaluated with the Fisher Exact test. […] The data were analysed using the GraphPad Prism 4 for Windows statistics software package (GraphPad Software, Inc., San Diego, USA).

[2] = tested on: patients with chronic inflammatory bowel disease; assay: Markers of oxidative stress (plasma, urine) before and after 14 days oral iron therapy; conditions: for U-8-iso-PGF2α: urine
Protocol: as §1, §2, §3
Urine samples were collected on the morning of day 1 and day 15 and analysed for creatinine. Butyl-hydroxy-toluene (BHT) was added to 2 ml urine to a final concentration of 20 mM. The samples were then stored at −80° C. until analysed for urine 8-isoprostaglandin F2α (8-iso-PGF2α).
The values were analysed using the Wilcoxon test for pair differences, and the median and range are stated. The comparison of ratios was evaluated with the Fisher Exact test. P values of less than 0.05 are considered to be statistically significant. The data were analysed using the GraphPad Prism 4 for Windows statistics software package (GraphPad Software, Inc., San Diego, USA).

[3] = tested on: patients with chronic inflammatory bowel disease; assay: Clinical disease activity, symptoms, compliance and tolerability during oral iron therapy; type: in vivo, human; conditions: for total number of defecations per week: median (range)
Protocol: The status of the clinical disease was recorded before (day 1) and after (day 15) the iron therapy. The clinical disease activity was evaluated in patients with Crohn's disease with the “Harvey-Bradshaw Simple Index of Crohn's Disease Activity” (Harvey, R F., Bradshaw, J M., Lancet, 1980; 1:514). The Harvey-Bradshaw Simple Index is based on 5 parameters: general well-being, abdominal pain, stool frequency, abdominal mass and extraintestinal complications. The maximum score is 25 and scores of ≧5 indicate active Crohn's disease.
In patients with colitis ulcerosa, the “Simple Clinical Colitis Activity Index” was recorded (Walmsley, R S., Ayres, R C., Pounder, R E., Allan, R N., Gut 1998; 43; 29-32). The Simple Clinical Colitis Activity Index is based on 6 parameters: general well-being, stool frequency during the day and during the night, urgency of defecation, blood in the stool and extraintestinal complications. The maximum score is 20 and values of ≧4 indicate active colitis ulcerosa.
The Harvey-Bradshaw Simple Index and the Simple Clinical Colitis Activity Index are the same in respect of structure and the clinical significance of a given change in the scores. In order to allow the results of patients with Crohn's disease and colitis ulcerosa to be considered together, the activity scores were calculated as the actual score divided by the maximum score.
All the patients completed the particular Crohn's Disease Activity Index (CDAI) diary card (Best, W R., Becktel, J M., Singleton, J W., Kern, F. Jr., Gastroenterology 1976; 70:439-444) in the week before the start of the iron therapy and during the two weeks of iron therapy. The CDAI diary card comprises daily recording of general well-being, abdominal pain and the number of liquid or very soft stools. The total of seven daily records gives a score for each symptom. The higher the score, the more the patient is adversely affected. The medicament was administered during the study for 14 days and the mean for the two weeks is therefore used for the analysis. The patients also documented the occurrence of nausea before and during the iron therapy.
Patients who discontinued treatment with the medicament because of a deterioration in the symptoms were included in the analysis of the clinical disease activity and the symptom scores. Their disease activity scores were increased by two points, and the symptom scores were increased by one point per day.

[4] = mean of differences after vs before 14 days treatment
[5] = plasma, after 14 days oral treatment, mean (SEM)
[6] = plasma, before treatment, mean (SEM)
[7] = after 14 days oral treatment, mean (SEM)
[8] = serum, after 14 days oral treatment, mean (SEM)
[9] = serum, before treatment, mean (SEM)

O=S(=O)([O-])[O-].[Fe+2] [Iron(II) sulfate, iron(II) sulfate]
LD50 (white mice): 230 mg iron/kg | B-ESR ([1]; in vivo): 11 (2) mm/h | B-erythrocyte count ([1]; in vivo): 4.8 (0.1) 10^12/l | B-haematocrit ([1]; in vivo): 41 (1) % | B-haemoglobin ([1]; in vivo): 13.1 (0.4) g/dl | B-leukocyte count ([1]; in vivo): 6.5 (0.5) 10^9/l | B-platelet count ([1]; in vivo): 324 (23) 10^9/l | B-reticulocyte count ([1]; in vivo): 0.068 (0.006) 10^12/l | Hypochromic red cells (HYPO) ([1]; in vivo): 10.4 (3.6) % | MCH ([1]; in vivo): 27 (0.8) pg | MCHC ([1]; in vivo): 31.8 (0.4) g/dl | MCV ([1]; in vivo): 86 (1.6) fl | Reticulocyte haemoglobin (CHr) ([1]; in vivo): 29.3 (0.8) pg | S-CRP ([1]; in vivo): 7 (2) mg/l | S-ferritin ([1]; in vivo): 13 (2) μg/l | S-iron ([1]; in vivo): 11.1 (2.0) μmol/l | S-total iron binding capacity ([1]; in vivo): 81 (2) μmol/l | decrease in the hypochromic red cells ([1]; in vivo): −2.5% | decrease in the serum total iron binding capacity ([1]; in vivo): -7 µmol/L | increase in blood reticulocyte count ([1]; in vivo): 1.6e+10 L⁻¹ | increase in s-ferritin ([1]; in vivo): 12 µg/L | increase in the reticulocyte haemoglobin ([1]; in vivo): 1.9 pg | increase of blood haemoglobin ([1]; in vivo): Neither iron(II) sulfate nor iron(III)-polymaltose complex increased the blood haemoglobin | B-ESR ([1]; in vivo, po): 10 (2) mm/h | B-erythrocyte count ([1]; in vivo, po): 4.8 (0.1) 10^12/l | B-haematocrit ([1]; in vivo, po): 42 (1)* % | B-haemoglobin ([1]; in vivo, po): 13.3 (0.3) g/dl | B-leukocyte count ([1]; in vivo, po): 6.3 (0.4) 10^9/l | B-platelet count ([1]; in vivo, po): 306 (21) 10^9/l | B-reticulocyte count ([1]; in vivo, po): 0.084 (0.007) 10^12/l | Hypochromic red cells (HYPO) ([1]; in vivo, po): 8.8 (3.2)* % | MCH ([1]; in vivo, po): 28 (0.8)*# pg | MCHC ([1]; in vivo, po): 32.0 (0.3) g/dl | MCV ([1]; in vivo, po): 87 (1.3)* fl | Reticulocyte haemoglobin (CHr) ([1]; in vivo, po): 31.1 (0.7)* pg | S-CRP ([1]; in vivo, po): 6 (2) mg/l | S-ferritin ([1]; in vivo, po): 25 (3)*# μg/l | S-iron ([1]; in vivo, po): 14.2 (2.2) μmol/l | S-total iron binding capacity ([1]; in vivo, po): 74 (2)*# μmol/l | change in plasma MDA values [2, 4]: 95 nmol/L | change in urine iso-PGF2α values [2, 4]: 194 pg/mg creatinine | P-malondialdehyde ([2]; plasma, after 14 days oral treatment (day 15), mean (SEM)): 395 (25)* nmol/l | P-beta-carotene [2, 5]: 0.67 (0.10) μmol/l | P-cysteine [2, 5]: 199 (13) μmol/l | P-cysteinyl-glycine [2, 5]: 16.6 (1.2) μmol/l | P-glutathione [2, 5]: 5.08 (0.54) μmol/l | P-homocysteine [2, 5]: 4.58 (0.47) μmol/l | P-vitamin A [2, 5]: 1.8 (0.2) μmol/l | P-vitamin C [2, 5]: 58.6 (5.4) μmol/l | P-vitamin E [2, 5]: 29.3 (1.5) μmol/l | P-malondialdehyde ([2]; plasma, before treatment (day 1), mean (SEM)): 294 (25) nmol/l | P-beta-carotene [2, 6]: 0.67 (0.09) μmol/l | P-cysteine [2, 6]: 203 (11) μmol/l | P-cysteinyl-glycine [2, 6]: 16.7 (1.1) μmol/l | P-glutathione [2, 6]: 5.05 (0.48) μmol/l | P-homocysteine [2, 6]: 4.87 (0.59) μmol/l | P-vitamin A [2, 6]: 1.7 (0.2) μmol/l | P-vitamin C [2, 6]: 60.9 (6.0) μmol/l | P-vitamin E [2, 6]: 30.2 (1.8) μmol/l | U-8-iso-PGF2α ([2]; after 14 days oral treatment (day 15), mean (SEM)): 629 (124) pg/mg creatinine | U-8-iso-PGF2α ([2]; before treatment (day 1), mean (SEM)): 417 (46) pg/mg creatinine | influence on general wellbeing or abdominal pain score ([3]; CDAI diary card): Neither iron(II) sulfate nor iron(III)-polymaltose complex had an influence | total number of defecations per week ([3]; before treatment): 19 (7-106) | change of clinical disease activity indices ([3]; day 15 vs day 1): Neither the treatment with iron(II) sulfate (p=0.45) nor the treatment with iron(III)-polymaltose complex (p=0.80) substantially changed the clinical disease activity indices | total number of defecations per week ([3]; during the treatment): 24 (7-55) | patients who discontinued the treatment (intolerable bowel movements, abdominal pain and nausea) ([3]; of n=21 iron(II) sulfate, n=20 iron(III)-polymaltose complex): Three patients | Increased nausea reported ([3]; patients reporting / patients treated): 9/21

iron(III)-polymaltose complex
increase of blood haemoglobin ([1]; 14 days treatment): Neither iron(II) sulfate nor iron(III)-polymaltose complex increased the blood haemoglobin | B-erythrocyte count [1, 7]: 4.7 (0.1) 10^12/l | B-haematocrit [1, 7]: 40 (1) % | B-reticulocyte count [1, 7]: 0.075 (0.008)* 10^12/l | Hypochromic red cells (HYPO) [1, 7]: 10.6 (2.8) % | MCH [1, 7]: 27 (0.7) pg | MCHC [1, 7]: 31.2 (0.3) g/dl | MCV [1, 7]: 85 (1.6) fl | Reticulocyte haemoglobin (CHr) [1, 7]: 29.5 (0.7) pg | B-erythrocyte count ([1]; before treatment, mean (SEM)): 4.7 (0.1) 10^12/l | B-haematocrit ([1]; before treatment, mean (SEM)): 39 (1) % | B-reticulocyte count ([1]; before treatment, mean (SEM)): 0.059 (0.006) 10^12/l | Hypochromic red cells (HYPO) ([1]; before treatment, mean (SEM)): 10.3 (3.0) % | MCH ([1]; before treatment, mean (SEM)): 27 (0.7) pg | MCHC ([1]; before treatment, mean (SEM)): 31.6 (0.3) g/dl | MCV ([1]; before treatment, mean (SEM)): 84 (1.8) fl | Reticulocyte haemoglobin (CHr) ([1]; before treatment, mean (SEM)): 29.1 (0.8) pg | B-haemoglobin ([1]; blood, after 14 days oral treatment, mean (SEM)): 12.5 (0.3) g/dl | B-haemoglobin ([1]; blood, before treatment, mean (SEM)): 12.5 (0.3) g/dl | B-ESR ([1]; in vivo): 22 (3) mm/h | B-leukocyte count ([1]; in vivo): 6.9 (0.6) 10^9/l | B-platelet count ([1]; in vivo): 347 (18) 10^9/l | S-CRP ([1]; in vivo): 12 (3) mg/l | B-ESR ([1]; in vivo, po): 20 (3)* mm/h | B-leukocyte count ([1]; in vivo, po): 7.0 (0.7) 10^9/l | B-platelet count ([1]; in vivo, po): 343 (21) 10^9/l | S-CRP ([1]; in vivo, po): 11 (2) mg/l | increase in blood reticulocyte count [1, 4]: 1.6e+10 L⁻¹ | S-ferritin [1, 8]: 13 (2) μg/l | S-iron [1, 8]: 8.9 (1.5) μmol/l | S-soluble transferrin receptor [1, 8]: 2.03 (0.21) mg/l | S-total iron binding capacity [1, 8]: 77 (2) μmol/l | S-ferritin [1, 9]: 13 (2) μg/l | S-iron [1, 9]: 8.8 (0.8) μmol/l | S-soluble transferrin receptor [1, 9]: 2.08 (0.24) mg/l | S-total iron binding capacity [1, 9]: 77 (2) μmol/l | P-beta-carotene ([2]; in vivo): 0.59 (0.13) μmol/l | P-cysteinyl-glycine ([2]; in vivo): 18.7 (0.9) μmol/l | P-glutathione ([2]; in vivo): 5.22 (0.30) μmol/l | P-homocysteine ([2]; in vivo): 6.53 (1.16) μmol/l | P-malondialdehyde ([2]; in vivo): 275 (21) nmol/l | P-vitamin A ([2]; in vivo): 1.6 (0.1) μmol/l | P-vitamin E ([2]; in vivo): 29.3 (1.6) μmol/l | change in plasma MDA values ([2]; in vivo): did not significantly change | change in urine iso-PGF2α values ([2]; in vivo): did not significantly change | P-beta-carotene ([2]; in vivo, po): 0.57 (0.09) μmol/l | P-cysteinyl-glycine ([2]; in vivo, po): 18.5 (1.1) μmol/l | P-glutathione ([2]; in vivo, po): 5.43 (0.43) μmol/l | P-homocysteine ([2]; in vivo, po): 6.04 (0.94) μmol/l | P-malondialdehyde ([2]; in vivo, po): 300 (19) nmol/l | P-vitamin A ([2]; in vivo, po): 1.9 (0.3) μmol/l | P-vitamin E ([2]; in vivo, po): 28.3 (1.7) μmol/l | Increased nausea reported ([3]; human, in vivo): 7/20 | change of clinical disease activity indices ([3]; human, in vivo): Neither the treatment with iron(II) sulfate (p=0.45) nor the treatment with iron(III)-polymaltose complex (p=0.80) substantially changed the clinical disease activity indices | influence on general wellbeing or abdominal pain score ([3]; human, in vivo): Neither iron(II) sulfate nor iron(III)-polymaltose complex had an influence | patients who discontinued the treatment (intolerable bowel movements, abdominal pain and nausea) ([3]; human, in vivo): one patient | tolerability of the iron therapy ([3]; human, in vivo): good tolerability
